{"source": "paper PMC6988596", "about": "(Chemical Science, 2019)", "molecular_target": "LeuS (Escherichia coli, UniProt P07813)", "assay": "HAMA hydroxamate LC-MS/MS competition assay", "type": "biochemical", "details": "amino acid mixture", "data": [{"smiles": "CC(C)C[C@H](N)C(=O)O", "note": "[L-Leu]", "values": [{"measurement": "HAMA hydroxamate LC-MS/MS competition assay", "value": "all three specificities were correctly identified and almost no side-activities detected"}]}]}
